Results: patent US20250082787A1, “ALGINIC ACID-BASED INJECTABLE HYDROGEL SYSTEM” (National Cancer Center, priority 2018, published 2025)

Assays:
[1] = Persistence of fluorescence after subcutaneous injection in nude mouse (IVIS fluorescence image); type: in vivo
Procedure: In order to see the fluorescence persistence of the alginic acid hydrogel containing indocyanine green-human serum albumin in a nude mouse, it was injected in the form of a gel subcutaneously to the nude mouse through a dual syringe, and then the labeling performance over time was photographed with a fluorescent image device (IVIS Lumina XR, Xenogen Corporation-Caliper, CA, USA). Three solutions to be injected into the animal model were prepared in the same manner as in Preparation Examples 7 to 9. FIG. 7 is a schematic diagram of injecting an alginic acid hydrogel containing indocyanine green-human serum albumin subcutaneously to a nude mouse using a dual syringe.
The solutions of Preparation Examples 7 to 9 were injected subcutaneously to a nude mouse, respectively so that the total volume was 100 μL using a dual syringe.

[2] = 2 to 100 μM in distilled water, λex=720 nm
Procedure: Before developing a surgical marker using indocyanine green and human serum albumin conjugate, in order to determine the appropriate concentration of indocyanine green and human serum albumin conjugate, the two substances were mixed by each concentration to observe change in fluorescence (λex=720 nm) and absorbance.
3 mL of distilled water was added to 1.5 mg of indocyanine green (ICG, purchased from Sigma-Aldrich) and dissolved by stirring to prepare a high concentration of indocyanine green solution. Distilled water was added to the high concentration of indocyanine green solution and mixed through stirring to prepared a 2 to 100 μM solution.

- fluorescence remaining compared to immediately after injection ([1]; ROI value, when one day passed): 16%
- concentration up to which maximum fluorescence intensity increased [2]: about 20 μM
SMILES: CC1(C)C(/C=C/C=C/C=C/C=C2\N(CCCCS(=O)(=O)O)c3ccc4ccccc4c3C2(C)C)=[N+](CCCCS(=O)(=O)[O-])c2ccc3ccccc3c21 [indocyanine green]
- time fluorescence was maintained / emitted (FIG. 8) ([1]; 100 μL subcutaneous, nude mouse, λex=780 nm, λem=845 nm): about one
- time at which fluorescence (ROI value) was greatest ([1]; FIG. 10A, nude mouse): 6 h
- time in which fluorescence signals almost disappeared ([1]; FIG. 10C, nude mouse): 48 h
- time after which injected solution spread and disappeared at injection site (FIG. 9) ([1]; appearance of injected site, nude mouse): about 24 hours
